The values below come from US20140173780A1, “SOYBEAN TRAN[…] EFFICIENT AND HIGH-[…] PRODUCTION” (DOW AGROSCIENCES LLC, priority 2012, published 2014).

The test system of this assay is un-transformed soybean explants. As to the kind of experiment: Glyphosate dose response study on un-transformed soybean explants in tissue culture media. The format is in vivo, soybean (Glycine max). Particulars: for Number of Explants at Various Stages of Selection: SE-1 / Number of Explants at Various Stages of Selection: SE-2 / Number of Explants at Various Stages of Selection: SI-2 / Number of Explants at Various Stages of Selection: End of SE-2: 49 explants at CC; for Number of Explants at Various Stages of Selection: End of SE-2: six weeks on selection. Here is the method: Initially, a dose response study was completed. To test the effect of glyphosate on the explants, glyphosate was added to media used from the shoot initiation stage and onwards. Glyphosate was tested from the range of 0.025-0.2 mM. Incorporation of glyphosate in tissue culture media within this concentration range has been reported in soybean (Clemente et al., 2000; Hinchee et al., 1996; Martinell et al., 2006; Martinell et al., 1999; Martinell et al., 2002), tobacco (Singer et al., 1985), cotton (Zhao et al., 2006) and wheat (Hu et al., 2003). Five concentrations of glyphosate were tested for culturing of un-transformed soybean explants. The concentrations incorporated into the SI-2 media were 0.025 mM, 0.05 mM, 0.075 mM, 0.1 mM and 0.2 mM. The un-transformed soybean explants were maintained on the same rate of glyphosate selection for all the successive stages of subculture from SI-2 media to the completion of the tissue culturing protocol. The numbers of healthy explants were counted at each subculture stage. Dead explants were discarded and healthy explants were subcultured further onto appropriate media.
Growth of the explants was also retarded on glyphosate containing media. Next the cotyledons were removed and the explants were subcultured from SI-2 to SE media. At the end of another two weeks of selection on SE media, significant differences in the growth of the explants were observed when the explants were exposed to different levels of glyphosate. The retarded growth of the explants was proportionate to the increasing dose of glyphosate. Similarly the number of dead explants was also proportional to the increasing dose of glyphosate. The number of dead explants increased as the dose of glyphosate was increased. […] Subsequently, three different concentrations of glyphosate (e.g., 0.025 mM, 0.05 mM and 0.1 mM) were incorporated into the selection schemes for Agrobacterium-mediated transformation of the soybean split-seed explants comprising a portion of an embryonic axis.

[1] abbreviates: 0.025 mM glyphosate in media from SI-2 onwards.
The mark [2] stands for this setting: 0.05 mM glyphosate in media from SI-2 onwards.
The mark [3] stands for this setting: 0.075 mM glyphosate in media from SI-2 onwards.
Where [4] appears, read: 0.1 mM glyphosate in media from SI-2 onwards.
The mark [5] stands for this setting: 0.2 mM glyphosate in media from SI-2 onwards.

On to `O=C(O)CNCP(=O)(O)O` [Glyphosate, glyphosate], for which the “Number of Explants at Various Stages of Selection: SE-1” value (from here on “Number … of Selection: SE-1”) under setting [1] is 41; the “Number … of Selection: SE-1” value under setting [2] turned out to be 45; the “Number … of Selection: SE-1” value under setting [3] is on record as 45; the “Number … of Selection: SE-1” value under setting [4] is 41; the “Number … of Selection: SE-1” value under setting [5] is reported as 31. Also, the “Number of Explants at Various Stages of Selection: SE-2” value is, setting by setting: under setting [1], 38; under setting [2], 38; under setting [3], 21; under setting [4], 13; under setting [5], 1; (0.2 mM glyphosate in media from SI-2 onwards, listed as glyphosate) “only one explants survived”. Besides, the “Number of Explants at Various Stages of Selection: SI-2” value is reported as 43 under setting [1]; 45 under setting [2]; 47 under setting [3]; 44 under setting [4]; 42 under setting [5]. The “Number of Explants at Various Stages of Selection: End of SE-2” value is, setting by setting: under setting [1], “none of the soybean explants were able to survive”; under setting [2], 0; under setting [3], 0; under setting [4], 0; under setting [5], 0. For the same compound, the “yellowing of the cotyledons” value (end of culturing on SI-2 media (about 2 weeks), 0.025-0.2 mM glyphosate, extent proportional to dose) was “explants showed yellowing of the cotyledons”. Further, the “growth of the explants” value (glyphosate containing media, 0.025-0.2 mM, proportionate to dose) is reported as “retarded”.
